# Laboratory results published in PubChem BioAssay AID1996.
# Details: buffer; pH 7.4; 200.0 µM
row,Compound,solubility kinetic [µg/mL]
1,COc1ccc(-c2csc(-c3cccs3)n2)c(OC)c1,0.8
2,COc1ccc(CNc2nccs2)cc1OC,> 37.5
3,COC(=O)c1scc(C)c1S(=O)(=O)Nc1ccc(C)cc1,6.5
4,CSCCC1NC(=S)N(Cc2ccccc2)C1=O (stereo not drawn),> 42.1
5,CSc1ncc(Cl)c(C(=O)NCc2cccnc2)n1,> 44.2
6,O=C(Nc1ccccc1F)c1ccc2ncsc2c1,> 40.8
7,Cc1cccc(/C=N/NC(=O)c2cc(C)nc3ccccc23)n1,> 45.7
8,O=[N+]([O-])c1ccccc1S(=O)(=O)N1CCN(c2ccccn2)CC1,4.1
9,CCCCc1ccc(NC(=O)NCc2ccccn2)cc1,13.1
10,CC1CCN(C(=O)c2ccc([N+](=O)[O-])o2)CC1,> 35.7
11,O=C1OC(c2ccc(Cl)cc2)=C/C1=C/c1cccnc1,0.7
12,Cc1cccc(NC(=O)[C@@H]2CCCN2S(=O)(=O)c2ccc(Cl)cc2)c1,37.9
13,CC(=O)c1c(-c2ccccc2)c2cc([N+](=O)[O-])ccc2[nH]c1=O,16.3
14,CC1CCCCC1NC(=O)NC(=O)COC(=O)c1nccnc1N (stereo not drawn),> 50.3
15,O=C(Cc1ccccc1[N+](=O)[O-])N1CCOCC1,> 37.5
16,COC(=O)[C@H](Cc1ccccc1)NC(=O)N(C)Cc1ccccc1,> 49
17,Cc1ccc(S(=O)(=O)N2CCCCC2)cc1C(=O)NCc1ccccn1,52
18,COC(=O)/C=C/COc1ccccc1[N+](=O)[O-],17.9
19,O=C1C(Cc2ccccc2O)NC(=S)N1c1ccccc1 (stereo not drawn),44.6
20,COCCNC(=O)CSc1nccn1Cc1ccc2c(c1)OCO2,> 52.4
21,O=C1Nc2ccccc2Nc2ccccc21,20.9
22,COC(=O)C1CCN(CC(=O)Nc2ccc3c(c2)OCCO3)CC1,> 50.2
23,OC(COc1ccc(Br)cc1)Cn1ccnc1 (stereo not drawn),36.3
24,COc1ccc(Cl)cc1NC(=O)CN(C)C(=O)C1COc2ccccc2O1 (stereo not drawn),43.1

row,Compound,solubility kinetic [µg/mL]
1,CNC(=O)CSc1nc2ccccc2c(=O)n1C1CCCCC1,> 49.7
2,CCc1ccc2c(CN3CCOCC3)cc(=O)oc2c1,> 41
3,O=C(NCCc1ccc(Cl)cc1Cl)c1ccc2nc[nH]c2c1,33.2
4,Nc1ccccc1C(=O)N1CCCC1,> 28.5
5,CCOc1ccc(NC(=O)COC(=O)c2cc(C)oc2C)cc1,4.2
6,O=C(NCc1ccco1)c1ccc2c(c1)N(Cc1ccccc1)CCS2,12.9
7,CC1CCCCC1NC(=O)COC(=O)c1ccc2c(=O)n3c(nc2c1)CCC3 (stereo not drawn),22.2
8,CCCNC(=S)N1CCC(NC(=O)Nc2ccc(C)cc2)CC1,4.9
9,Cc1[nH]c2ccccc2c1C(=O)C(=O)N1CCN(C(=O)c2ccco2)CC1,> 54.8
10,O=C(CCc1ccccc1)NCCc1nc2ccccc2[nH]1,> 44
11,Cc1csc(NC(=O)CN2C(=O)COc3ccc(Cl)cc32)n1,2.1
12,CCOc1ccc(NC(=O)CSc2ccccc2N)cc1,> 45.4
13,Cc1ccc(O)c(NC(=O)c2cc(-c3ccc(F)cc3)on2)c1,< 0.3
14,O=Cc1cc2cc3c(cc2nc1Cl)OCCO3,0.9
15,C=CCn1c(O)c(/C=C2/C=c3ccccc3=N2)c(=O)[nH]c1=S,1.2
16,CN1CCN(c2ccncc2S(=O)(=O)N2CCCCC2)CC1,> 48.7
17,COC(=O)c1ccccc1-n1c(C)nc(=O)c(-c2ccccc2)c1C,> 50.2
18,Cn1c(=S)oc2ccccc21,14.9
19,Cc1ccsc1/C=C(\C#N)C(=O)NCCCN1CCOCC1,45.7
20,Cl.ClC(CCN1CCN(Cc2ccccc2)CC1)c1ccccc1 (stereo not drawn),> 60.3
21,COc1ccc(-c2cnc(N)nc2-c2ccc(OC)cc2)cc1,2.8
22,COc1ccccc1NC(=O)Cc1cccc2ccccc12,2.1
23,CC(NC(=O)c1ccc([N+](=O)[O-])o1)C1CC2CCC1C2 (stereo not drawn),> 41.7
24,Br.CC1=C(c2ccccc2)SC2=NCCN21,> 44.6

row,Compound,solubility kinetic [µg/mL]
1,Cl.O=C(CCN1CCN(c2ccccc2F)CC1)c1ccc(Br)cc1,42.3
2,CCCCCCC(=O)c1c([O-])n(-c2ccc(OC)cc2)c(=O)[nH]c1=O.C[NH+](C)C,44.5
3,O=C(NCC(=O)N1CCOCC1)c1ccc(Cl)c(Cl)c1,> 47.6
4,CC(=O)N/C(=C\c1ccccc1)C(=O)OCC(=O)Nc1ccc(C)c(S(=O)(=O)N(C)C)c1,56.9
5,Cc1cc(=O)[nH]c(SCC(=O)NC2CCCCCCC2)n1,> 46.4
6,Cc1ccc(S(=O)(=O)N2CCCc3ccccc32)cc1C,2.3
7,COc1ccc2cc(C3OCCO3)c(Cl)nc2c1,32.1
8,O=C(Oc1ccc(C(=S)N2CCOCC2)cc1Cl)c1ccccc1F,9.9
9,COc1ccccc1NC(=O)c1cc[n+]([O-])cc1,> 36.6
10,O=C(NC(=O)c1ccc(C(F)(F)F)cc1)Nc1ccc(-c2cnco2)cc1,2.8
11,COc1cc(=O)[nH]c(SC(C)C(=O)Nc2ccc3ccccc3c2)n1 (stereo not drawn),0.8
12,O=C(COc1ccc(C(=O)O)cc1)Nc1cccc(C(F)(F)F)c1,> 50.9
13,COc1ccc(C(=O)O)cc1S(=O)(=O)NC1CCN(Cc2ccccc2)CC1,59.1
14,COc1ccccc1/C=C/C(=O)N1CCc2cc(OC)c(OC)cc2C1C (stereo not drawn),33
15,COc1ccccc1C(=O)Nc1c[nH]c(=O)[nH]c1=O,3.4
16,O=C(NCCCNC(=O)c1ccccn1)c1cccc(F)c1,42.3
17,COc1ccccc1NS(=O)(=O)c1cc(N)ccc1N1CCCCC1,6.1
18,CNC(=O)c1sc(-c2ccccn2)nc1C,> 35
19,O=c1nc(-c2ccccc2Cl)c2cc(F)ccc2[nH]1,38.9
20,Cc1ccc2nc3cc([N+](=O)[O-])cc([N+](=O)[O-])c3cc2c1,0.8
21,O=C(O)c1cccc(S(=O)(=O)Nc2ccc(-c3ccccc3)cc2)c1,> 53
22,COC(=O)c1nn(-c2cccc(C(F)(F)F)c2)ccc1=O,> 44.7
23,COc1ccc(NC(=O)c2oc3ccccc3c2CSC)cc1S(=O)(=O)N1CCOCC1,3.8
24,CCCCC(CC)C(=O)Nc1ncc([N+](=O)[O-])s1 (stereo not drawn),> 40.7

row,Compound,solubility kinetic [µg/mL]
1,CC(C(=O)Nc1ccc(C#N)cc1)N(C)CC(=O)Nc1cccc(F)c1 (stereo not drawn),5.9
2,COc1ccc(CN(C)C(=O)COC(=O)c2cc([N+](=O)[O-])ccc2N2CCCC2)c(OC)c1OC,10.2
3,COc1ccc(Nc2ccc(C(N)=O)cc2[N+](=O)[O-])cc1,14.3
4,Nc1ncnc2c1ncn2CCc1ccccc1,> 35.9
5,O=C(Nc1ccc(F)cc1)NC1CCN(Cc2c(F)cccc2Cl)CC1,2.8
6,COCc1cc(=O)[nH]c(/N=C(\N)Nc2ccc(Cl)c(Cl)c2)n1,0.2
7,Cc1cc(C)nc(NC2=NCCN2C(=S)Nc2c(C)cccc2C)n1,17.7
8,Clc1ccc(N2CCN(Cc3ccc(Br)o3)CC2)cc1,1.4
9,CN(Cc1ccccc1)C(=O)CN1CCCC1=O,> 36.9
10,O=C(Nc1ccccc1F)c1cc(Cl)sc1Cl,5.2
11,Cc1cc(C)n2nc(SC(C)C(=O)N3CC(C)OC(C)C3)nc2n1 (stereo not drawn),> 52.4
12,O=C(N/N=C/c1ccc2c(c1)OCO2)C1CC1,> 34.8
13,CCOC(=O)c1oc2ccccc2c1NC(=O)c1ccco1,1.5
14,CN(C(=O)COC(=O)c1ccc[nH]c1=O)C1CCCCC1,> 43.9
15,CCN(CC)C(=O)c1ccc(S(=O)(=O)c2ccccc2)cc1,33.6
16,Cc1[nH]c2ccc(C(=O)NC3CCC(C)CC3)cc2c1C (stereo not drawn),0.9
17,COC(=O)c1ccc(S(=O)(=O)N2CCC(O)CC2)n1C,> 45.4
18,O=C(COc1ccc(F)cc1Br)NCCCN1CCCC1=O,> 56
19,COc1ccc(C(=O)COC(=O)c2cc(C)no2)c(OC)c1,> 45.8
20,O=C(Nc1nccs1)C1CC(=O)N(c2ccc(Cl)cc2)C1 (stereo not drawn),4.1
21,CN1CCN(Cc2cn(C)c3ccccc23)CC1CCO (stereo not drawn),32.3
22,Cc1c(C)n(Cc2ccccc2)c2ccc(C(=O)O)cc12,> 41.9
23,O=C(OCC(=O)N1CCc2ccccc21)c1ccccn1,> 42.3
24,O=C(NCc1cccnc1)Nc1cccc([N+](=O)[O-])c1,> 40.8

row,Compound,solubility kinetic [µg/mL]
1,CCCCC(CC)CNC(=O)C(=O)C1C(=O)Nc2ccccc21 (stereo not drawn),26.1
2,COc1ccc(NC(=O)C2CCCCC2)cc1S(=O)(=O)N1CCOCC1,51.6
3,COc1ccc(Cl)cc1NC(=O)Nc1cnccn1,0.4
4,CCC(=O)Nc1cccc(C(=O)c2ccc(C)c(C)c2)c1,28
5,Cc1cc(C)cc(NC(=O)[C@@H](NC(=O)c2ccco2)C(C)C)c1,2.8
6,O=S(=O)(Cc1ccco1)Cc1nc(-c2ccc(Cl)cc2)cs1,0.9
7,COc1ccc2nc(Nc3ccccc3OC)sc2c1,3.8
8,CC1CCN(C(=O)CN(Cc2ccc(Cl)cc2)S(C)(=O)=O)CC1,52.8
9,COc1ccc(/C=C(\C#N)C(=O)Nc2ccccn2)cc1,3.5
10,COC(=O)C1CN(C(=O)COc2ccccc2C)c2ccccc2O1 (stereo not drawn),48.8
11,C=CCn1c(SCC(=O)N2CCOCC2)nc2sc(CC)cc2c1=O,> 56.9
12,CCCn1c(C(=O)c2ccccc2)nc2ccccc21,9.7
13,COc1cccc(CN(C)C(=O)c2cc(S(=O)(=O)N3CCCC3)ccc2C)c1OC,> 64.9
14,Cc1nc(SCC(=O)Nc2ccc(S(=O)(=O)N3CCOCC3)cc2)c2c(C)c(C)sc2n1,7.3
15,Cc1ccc(C(=O)NCc2ccco2)c(C)c1,33.6
16,Cc1noc(C(=O)Nc2cc(Cl)ccc2O)c1Cl,1.7
17,CC(=O)c1ccccc1NC(=O)COC(=O)c1cc[n+]([O-])cc1,> 47.1
18,CN(C)C(CNC1CC(C)(C)NC(C)(C)C1)c1cccc(F)c1 (stereo not drawn),34.7
19,COc1ccc(C(=O)NCCNc2ccc([N+](=O)[O-])cc2)cc1,5
20,N/C(CSc1ncccc1C(F)(F)F)=N\O,> 37.7
21,CC1CCCC(NC(=O)CCNC(=O)c2ccc([N+](=O)[O-])cc2)C1C (stereo not drawn),> 52.1
22,C/C(=C\C(=O)c1cccnc1)Nc1ccc(C(=O)O)cc1,31.3
